Assay results reported in patent publication US20170050957A1, “4-AMINO-6-(HETEROCYCLIC)PICOLINATES AND 6-AMINO-2-(HETEROCYCLIC)PYRIMIDINE-4-CARBOXYLATES AND THEIR USE AS HERBICIDES” (Dow AgroSciences LLC, priority 2013, published 2017).
Where two headings read alike, the source gives them in different places.

Legend:
[1] = system: Key Broadleaf Weed and Crop Species; test: Post-emergent Test II herbicidal activity (Table 15); format: in vivo; conditions: post-emergence, 336 h, 14 d; for pest or weed control at 35 g/ha: 35 g ai/ha; for pest or weed control at 70 g/ha: 70 g ai/ha; for pest or weed control at 140 g/ha: 140 g ai/ha
Summary of the method: (§1)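 Post-emergence spray; seedlings 7-21 d old, 1st-2nd true leaf; 187 L/ha; serial rates 1×-1/16×; solvent blank controls; subirrigated; visual % injury at 14 d.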

[2] = system: Key Grass and Sedge Weeds as well as Grass Crops; test: Post-emergent Test II herbicidal activity (Table 16); format: in vivo; conditions: post-emergence, 336 h, 14 d; for pest or weed control at 35 g/ha: 35 g ai/ha; for pest or weed control at 70 g/ha: 70 g ai/ha; for pest or weed control at 140 g/ha: 140 g ai/ha
Summary of the method: as §1

[3] = Abutilon theophrasti, velvetleaf (Abutilon theophrasti), read-out: Visual Growth Reduction (%) 14 Days After Application, ABUTH
[4] = Amaranthus retroflexus, redroot pigweed (Amaranthus retroflexus), read-out: Visual Growth Reduction (%) 14 Days After Application, AMARE
[5] = Brassica napus, oilseed rape, canola (Brassica napus), read-out: Visual Growth Reduction (%) 14 Days After Application, BRSNN
[6] = Chenopodium album, lambsquarters (Chenopodium album), read-out: Visual Growth Reduction (%) 14 Days After Application, CHEAL
[7] = Euphorbia heterophylla, wild poinsettia (Euphorbia heterophylla), read-out: Visual Growth Reduction (%) 14 Days After Application, EPHHL
[8] = Helianthus annuus, sunflower (Helianthus annuus), read-out: Visual Growth Reduction (%) 14 Days After Application, HELAN
[9] = Cyperus esculentus, yellow nutsedge (Cyperus esculentus), read-out: Visual Growth Reduction (%) 14 Days After Application, CYPES
[10] = Echinochloa crus-galli, barnyardgrass (Echinochloa crus-galli), read-out: Visual Growth Reduction (%) 14 Days After Application, ECHCG
[11] = Oryza sativa, rice (Oryza sativa), read-out: Visual Growth Reduction (%) 14 Days After Application, ORYSA
[12] = Setaria faberi, giant foxtail (Setaria faberi), read-out: Visual Growth Reduction (%) 14 Days After Application, SETFA
[13] = Triticum aestivum, wheat, spring (Triticum aestivum), read-out: Visual Growth Reduction (%) 14 Days After Application, TRZAS
[14] = Zea mays, maize, corn (Zea mays), read-out: Visual Growth Reduction (%) 14 Days After Application, ZEAMX

Row | SMILES | pest or weed control at 35 g/ha [1, 3] | pest or weed control at 70 g/ha [1, 3] | pest or weed control at 140 g/ha [1, 3] | pest or weed control at 35 g/ha [1, 4] | pest or weed control at 70 g/ha [1, 4] | pest or weed control at 140 g/ha [1, 4] | pest or weed control at 35 g/ha [1, 5] | pest or weed control at 70 g/ha [1, 5] | pest or weed control at 140 g/ha [1, 5] | pest or weed control at 35 g/ha [1, 6] | pest or weed control at 70 g/ha [1, 6] | pest or weed control at 140 g/ha [1, 6] | pest or weed control at 35 g/ha [1, 7] | pest or weed control at 70 g/ha [1, 7] | pest or weed control at 140 g/ha [1, 7] | pest or weed control at 35 g/ha [1, 8] | pest or weed control at 70 g/ha [1, 8] | pest or weed control at 140 g/ha [1, 8] | pest or weed control at 35 g/ha [2, 9] | pest or weed control at 70 g/ha [2, 9] | other results
1 | COC(=O)c1nc(-c2ccc(Cl)c3ccoc23)c(F)c(N)c1Cl [Compound 2.24] | 75 to 84% | 75 to 84% | 95 to 100% | 95 to 100% | 95 to 100% | 95 to 100% | 60 to 74% | 75 to 84% | 75 to 84% | 95 to 100% | 95 to 100% | 95 to 100% | 60 to 74% | 75 to 84% | 75 to 84% | 75 to 84% | 75 to 84% | 85 to 94% | 60 to 74% | 75 to 84% | pest or weed control at 140 g/ha [2, 9]: 85 to 94%; pest or weed control at 35 g/ha [2, 10]: 0 to 29%; pest or weed control at 70 g/ha [2, 10]: 0 to 29%; pest or weed control at 140 g/ha [2, 10]: 0 to 29%; pest or weed control at 35 g/ha [2, 11]: 0 to 29%; pest or weed control at 70 g/ha [2, 11]: 0 to 29%; pest or weed control at 140 g/ha [2, 11]: 0 to 29%; pest or weed control at 35 g/ha [2, 12]: 0 to 29%; pest or weed control at 70 g/ha [2, 12]: 0 to 29%; pest or weed control at 140 g/ha [2, 12]: 0 to 29%; pest or weed control at 35 g/ha [2, 13]: 0 to 29%; pest or weed control at 70 g/ha [2, 13]: 0 to 29%; pest or weed control at 140 g/ha [2, 13]: 0 to 29%; pest or weed control at 35 g/ha [2, 14]: 0 to 29%; pest or weed control at 70 g/ha [2, 14]: 30 to 44%; pest or weed control at 140 g/ha [2, 14]: 60 to 74%; melting point: 167 °C
2 | COC(=O)c1nc(-c2ccc(Cl)c3ccoc23)nc(N)c1OC [Compound 2.26] | 45 to 59% | 60 to 74% | 60 to 74% | 95 to 100% | 95 to 100% | 95 to 100% | 45 to 59% | 60 to 74% | 60 to 74% | 95 to 100% | 95 to 100% | 95 to 100% | 45 to 59% | 60 to 74% | 75 to 84% | 75 to 84% | 95 to 100% | 95 to 100% | 0 to 29% | 0 to 29% | pest or weed control at 140 g/ha [2, 9]: 0 to 29%; pest or weed control at 35 g/ha [2, 10]: 0 to 29%; pest or weed control at 70 g/ha [2, 10]: 0 to 29%; pest or weed control at 140 g/ha [2, 10]: 0 to 29%; pest or weed control at 35 g/ha [2, 11]: 0 to 29%; pest or weed control at 70 g/ha [2, 11]: 0 to 29%; pest or weed control at 140 g/ha [2, 11]: 0 to 29%; pest or weed control at 35 g/ha [2, 12]: 0 to 29%; pest or weed control at 70 g/ha [2, 12]: 0 to 29%; pest or weed control at 140 g/ha [2, 12]: 0 to 29%; pest or weed control at 35 g/ha [2, 13]: 0 to 29%; pest or weed control at 70 g/ha [2, 13]: 0 to 29%; pest or weed control at 140 g/ha [2, 13]: 0 to 29%; pest or weed control at 35 g/ha [2, 14]: 0 to 29%; pest or weed control at 70 g/ha [2, 14]: 0 to 29%; pest or weed control at 140 g/ha [2, 14]: 0 to 29%; melting point: 178 °C
3 | COC(=O)c1nc(-c2ccc(Cl)c3occc23)c(F)c(N)c1Cl [Compound 2.16, Methyl 4-amino-3-chloro-6-(7-chlorobenzofuran-4-yl)-5-fluoropicolinate] | 85 to 94% | 95 to 100% | 95 to 100% | 95 to 100% | 95 to 100% | 95 to 100% | 45 to 59% | 60 to 74% | 60 to 74% | 95 to 100% | 95 to 100% | 95 to 100% | 0 to 29% | 0 to 29% | 0 to 29% | 95 to 100% | 95 to 100% | 95 to 100% | 0 to 29% | 0 to 29% | pest or weed control at 140 g/ha [2, 9]: 0 to 29%; pest or weed control at 35 g/ha [2, 10]: 0 to 29%; pest or weed control at 70 g/ha [2, 10]: 0 to 29%; pest or weed control at 140 g/ha [2, 10]: 0 to 29%; pest or weed control at 35 g/ha [2, 11]: 0 to 29%; pest or weed control at 70 g/ha [2, 11]: 0 to 29%; pest or weed control at 140 g/ha [2, 11]: 0 to 29%; pest or weed control at 35 g/ha [2, 12]: 0 to 29%; pest or weed control at 70 g/ha [2, 12]: 0 to 29%; pest or weed control at 140 g/ha [2, 12]: 0 to 29%; pest or weed control at 35 g/ha [2, 13]: 0 to 29%; pest or weed control at 70 g/ha [2, 13]: 0 to 29%; pest or weed control at 140 g/ha [2, 13]: 0 to 29%; pest or weed control at 35 g/ha [2, 14]: 45 to 59%; pest or weed control at 70 g/ha [2, 14]: 95 to 100%; pest or weed control at 140 g/ha [2, 14]: 95 to 100%; melting point: 184 to 186 °C
